Experiment [1] deals with NQO1 mRNA in BEAS-2B cells. The experiment is described as follows: Beas2B NQO1 mRNA cell based assay. More on the design: species or system human. Conditions: Homo sapiens, BEAS-2B, 24 h, 24 h compound treatment, increase in NQO1 mRNA vs vehicle (0.1% DMSO), read-out: EC50. The method, boiled down: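 Relative NQO1 transcript level derived by ΔΔCT with human β-actin as internal control, using direct-lysate one-step RT-qPCR. Cells were BEAS-2B, plated overnight then treated with compound for 24 h.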

The target of experiment [2] is human KEAP1 (N-term, residues 321-609) (Homo sapiens, UniProt Q14145). The experiment is described as follows: biochemical.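 Note: fluorescence polarization competition assay of Kelch domain binding to NRF2, 12-point 1:3 dilution series from 10 µM, read after 1 h at room temperature, floor 10 nM.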
Experimental: Biological Assays KEAP1 Kelch Fluorescence Polarization (FP) Assay Method
Inhibition of the Kelch domain-NRF2 interaction was determined using a fluorescence polarization-based competition assay in a black 384-well microplate. Compounds were tested at a starting concentration of 10 μM serially diluted 1:3 to generate a 12-point dose response curve on the Biomek FX robot.
After 1 h at room temperature, fluorescence polarization (excitation 470 nm/emission 530 nm) was measured using an Envision plate reader. IC50 values were determined by fitting the data to a four parameter logistic fit using XLfit or XE Runner within ActivityBase.

These results are taken from patent publication US12098148B2, “Therapeutic compounds” (C4X Discovery Limited, priority 2018, dated 2024).

In general, EC50 refers to the concentration at which the effect is half-maximal. Broadly, the IC50 is the concentration needed to halve the response being measured. Low readings indicate greater potency, high ones weaker potency.

human KEAP1 (N-term, residues 321-609), sequence (Q14145 321-609): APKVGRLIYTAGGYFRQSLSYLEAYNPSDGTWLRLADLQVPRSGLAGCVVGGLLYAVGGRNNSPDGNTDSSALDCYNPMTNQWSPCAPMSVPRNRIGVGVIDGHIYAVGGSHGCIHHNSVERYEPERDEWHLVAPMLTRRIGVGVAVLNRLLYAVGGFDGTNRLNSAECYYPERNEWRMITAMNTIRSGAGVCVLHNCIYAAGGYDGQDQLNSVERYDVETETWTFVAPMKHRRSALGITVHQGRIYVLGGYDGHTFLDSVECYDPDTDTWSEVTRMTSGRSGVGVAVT

On to `O=C(O)[C@H]1CCCC[C@H]1C(=O)N1CCc2c(Cl)ccc(OCc3nsc4ccccc34)c2[C@H]1CN1CCCC1=O` [Example 68, (1S,2R)-2-((S)-8-(Benzo[d]isothiazol-3-ylmethoxy)-5-chloro-1-((2-oxopyrrolidin-1-yl)methyl)-1,2,3,4-tetrahydroisoquinoline-2-carbonyl)cyclohexane-1-carboxylic acid], for which the EC50 in experiment [1] stood at 32 nM. The compound also came in with an IC50 in experiment [2] of 8.4 nM.
Consider `CC(C)n1cc(COc2cccc3c2[C@@H](CN2Cc4ccccc4C2=O)N(C(=O)[C@@H]2CCCC[C@@H]2C(=O)O)CC3)nn1` [Example 17, (1S,2R)-2-((S)-8-((1-Isopropyl-1H-1,2,3-triazol-4-yl)methoxy)-1-((1-oxoisoindolin-2-yl)methyl)-1,2,3,4-tetrahydroisoquinoline-2-carbonyl)cyclohexane-1-carboxylic acid], for which the EC50 in experiment [1] stood at 110 nM. This compound also came in with an IC50 in experiment [2] of 9.7 nM.
The matching figures for `O=C(O)[C@H]1CCCC[C@H]1C(=O)N1CCc2c(Br)ccc(OCc3noc4ccccc34)c2[C@H]1CN1CCCC1=O` [Example 67]: 4.8 nM and 8.5 nM.
In the same order, the values of `C[C@]1(C(=O)O)CCCC[C@H]1C(=O)N1CCc2c(Cl)ccc(OCc3nnn4c3CCC4)c2[C@H]1CN1CC2(CC2)CC1=O` [Example 181, (1S,2R)-2-((S)-5-chloro-8-((5,6-dihydro-4H-pyrrolo[1,2-c][1,2,3]triazol-3-yl)methoxy)-1-((6-oxo-5-azaspiro [2.4]heptan-5-yl)methyl)-1,2,3,4-tetrahydroisoquinoline-2-carbonyl)-1-methylcyclohexane-1-carboxylic acid] are 0.69 nM and 5.1 nM.
In the same order, the values of `Cn1nnc(COc2ccc(Cl)c3c2[C@@H](CN2CCOCC2=O)N(C(=O)[C@@H]2CCCC[C@]2(C)C(=O)O)CC3)c1C(F)F` [Example 200, (1S,2R)-2-((S)-5-chloro-8-((5-(difluoromethyl)-1-methyl-1H-1,2,3-triazol-4-yl)methoxy)-1-((3-oxomorpholino)methyl)-1,2,3,4-tetrahydroisoquinoline-2-carbonyl)-1-methylcyclohexane-1-carboxylic acid] are 1.2 nM and 5.1 nM.
Regarding `Cn1nnc(COc2ccc(Cl)c3c2[C@@H](CN2CC4(CC4)CC2=O)N(C(=O)[C@@H]2CCC[C@]2(C)C(=O)O)CC3)c1C(F)(F)F` [Example 153, (1S,2R)-2-((S)-5-chloro-8-((1-methyl-5-(trifluoromethyl)-1H-1,2,3-triazol-4-yl)methoxy)-1-((6-oxo-5-azaspiro [2.4]heptan-5-yl)methyl)-1,2,3,4-tetrahydroisoquinoline-2-carbonyl)-1-methylcyclopentane-1-carboxylic acid], the 50% effective concentration (EC50) in experiment [1] came to 7 nM. This compound also returned an IC50 in experiment [2] of 9 nM.
The matching figures for `C[C@@H]1CC(=O)N(C[C@@H]2c3c(OCc4nnn(C)c4C(F)F)ccc(Cl)c3CCN2C(=O)[C@H]2CCCC[C@]2(C)C(=O)O)C1` [Example 149, (1S,2S)-2-((S)-5-chloro-8-((5-(difluoromethyl)-1-methyl-1H-1,2,3-triazol-4-yl)methoxy)-1-(((R)-4-methyl-2-oxopyrrolidin-1-yl)methyl)-1,2,3,4-tetrahydroisoquinoline-2-carbonyl)-1-methylcyclohexane-1-carboxylic acid]: 73 nM and 28 nM.
In the same order, the values of `Cc1c(COc2c(F)cc(Cl)c3c2[C@@H](CN2CC4(CC4)CC2=O)N(C(=O)[C@@H]2CCCC[C@]2(C)C(=O)O)CC3)nnn1C` [Example 143, (1S,2R)-2-((S)-5-chloro-8-((1,5-dimethyl-1H-1,2,3-triazol-4-yl)methoxy)-7-fluoro-1-((6-oxo-5-azaspiro[2.4]heptan-5-yl)methyl)-1,2,3,4-tetrahydroisoquinoline-2-carbonyl)-1-methylcyclohexane-1-carboxylic acid] are 0.05 nM and 5.2 nM.
As for `Cc1noc2nc(COc3ccc(Cl)c4c3[C@@H](CN3CCCC3=O)N(C(=O)[C@@H]3CCCC[C@@H]3C(=O)O)CC4)ccc12` [Example 95, (1S,2R)-2-((S)-5-Chloro-8-((3-methylisoxazolo[5,4-b]pyridin-6-yl)methoxy)-1-((2-oxopyrrolidin-1-yl)methyl)-1,2,3,4-tetrahydroisoquinoline-2-carbonyl) cyclohexane-1-carboxylic acid], in experiment [1], the EC50 was found to be 3.7 nM. This compound displayed an IC50 in experiment [2] of 8 nM.
In the same order, the values of `O=C(O)[C@H]1CCCC[C@H]1C(=O)N1CCc2c(Cl)ccc(OCc3noc4ncccc34)c2[C@H]1CN1CCCC1=O` [Example 93, (1S,2R)-2-((S)-5-Chloro-8-(isoxazolo[5,4-b]pyridin-3-ylmethoxy)-1-((2-oxopyrrolidin-1-yl)methyl)-1,2,3,4-tetrahydroisoquinoline-2-carbonyl) cyclohexane-1-carboxylic acid] are 15 nM and 7.2 nM.
Take `Cn1cnc2cc(COc3ccc(Br)c4c3[C@@H](CN3Cc5ccccc5C3=O)N(C(=O)[C@@H]3CCCC[C@@H]3C(=O)O)CC4)ccc21` [Example 33, (1S,2R)-2-((S)-5-bromo-8-((1-methyl-1H-benzo[d]imidazol-5-yl)methoxy)-1-((1-oxoisoindolin-2-yl)methyl)-1,2,3,4-tetrahydroisoquinoline-2-carbonyl)cyclohexane-1-carboxylic acid]: in experiment [1], the EC50 came to 22 nM. In experiment [2], this compound came in with an IC50 of 5.1 nM.
The matching figures for `Cn1nnc(COc2ccc(Cl)c3c2[C@@H](CN2CC4(CC4)CC2=O)N(C(=O)[C@@H]2OCCC[C@@H]2C(=O)O)CC3)c1C(F)F` [Example 140, (2R,3S)-2-((S)-5-chloro-8-((5-(difluoromethyl)-1-methyl-1H-1,2,3-triazol-4-yl)methoxy)-1-((6-oxo-5-azaspiro[2.4]heptan-5-yl)methyl)-1,2,3,4-tetrahydroisoquinoline-2-carbonyl)tetrahydro-2H-pyran-3-carboxylic acid]: 150 nM and 4.5 nM.
The matching figures for `Cn1nnc(COc2ccc(Cl)c3c2[C@@H](CN2CC4(CC4)CC2=O)N(C(=O)[C@@H]2CC(F)(F)CC[C@]2(C)C(=O)O)CC3)c1C(F)F` [Example 217, (1S,2R)-2-((S)-5-chloro-8-((5-(difluoromethyl)-1-methyl-1H-1,2,3-triazol-4-yl)methoxy)-1-((6-oxo-5-azaspiro[2.4]heptan-5-yl)methyl)-1,2,3,4-tetrahydroisoquinoline-2-carbonyl)-4,4-difluoro-1-methylcyclohexane-1-carboxylic acid]: 43 nM and 9.8 nM.
In the same order, the values of `O=C(O)[C@H]1CCCC[C@H]1C(=O)N1CCc2c(Cl)ccc(OCc3ccsn3)c2[C@H]1CN1CCCC1=O` [Example 71, (1S,2R)-2-((S)-5-Chloro-8-isothiazol-3-ylmethoxy)-1-((2-oxopyrrolidin-1-ylmethyl)-1,2,3,4-tetrahydroisoquinoline-2-carbonyl) cyclohexane-1-carboxylic acid] are 78 nM and 6.5 nM.
For the compound `CC(=O)N1CC[C@H](Oc2cccc3c2[C@@H](CN2C(=O)c4ccccc4C2=O)N(C(=O)[C@@H]2CCCC[C@@H]2C(=O)O)CC3)C1` [Example 3, (1S,2R)-2-((S)-8-(((S)-1-Acetylpyrrolidin-3-yl)oxy)-1-((1,3-dioxoiso-indolin-2-yl)methyl)-1,2,3,4-tetrahydroisoquinoline-2-carbonyl)cyclohexane-1-carboxylic acid], in experiment [1], the EC50 stood at 120 nM. This compound had an IC50 in experiment [2] of 5.6 nM.
Take `Cn1cnnc1COc1ccc(Br)c2c1[C@@H](CN1Cc3ccccc3C1=O)N(C(=O)[C@@H]1CCCC[C@@H]1C(=O)O)CC2` [Example 23, (1S,2R)-2-((S)-5-bromo-8-((4-methyl-4H-1,2,4-triazol-3-yl)methoxy)-1-((1-oxoisoindolin-2-yl)methyl)-1,2,3,4-tetrahydroisoquinoline-2-carbonyl)cyclohexane-1-carboxylic acid]: in experiment [1], the EC50 stood at 33 nM. In experiment [2], this compound gave an IC50 of 10 nM.
Regarding `C[C@]1(C(=O)O)CCCC[C@H]1C(=O)N1CCc2c(Cl)ccc(OCc3noc4ccccc34)c2[C@H]1CN1CCCC1=O` [Example 100, (1S,2R)-2-((S)-8-(benzo[d]isoxazol-3-ylmethoxy)-5-chloro-1-((2-oxopyrrolidin-1-yl)methyl)-1,2,3,4-tetrahydroisoquinoline-2-carbonyl)-1-methylcyclohexane-1-carboxylic acid], in experiment [1], the EC50 was 3.4 nM. In addition, the IC50 in experiment [2] amounted to 5.1 nM.
In the same order, the values of `Cn1nnc2cc(COc3ccc(Cl)c4c3[C@@H](CN3Cc5ccccc5C3=O)N(C(=O)[C@@H]3CCCC[C@@H]3C(=O)O)CC4)ccc21` [Example 48, (1S,2R)-2-((S)-5-chloro-8-((1-methyl-1H-benzo[d][1,2,3]triazol-5-yl)methoxy)-1-((1-oxoisoindolin-2-yl)methyl)-1,2,3,4-tetrahydroisoquinoline-2-carbonyl)cyclohexane-1-carboxylic acid] are 4.4 nM and 8 nM.
In the case of `C[C@@H]1CC(=O)N(C[C@@H]2c3c(OCc4nnn(C)c4C(F)F)ccc(Cl)c3CCN2C(=O)[C@@H]2CCCC[C@]2(C)C(=O)O)C1` [Example 111, (1S)-2-((S)-5-Chloro-8-((5-(difluoromethyl)-1-methyl-1H-1,2,3-triazol-4-yl)methoxy)-1-1-(((R)-4-methyl-2-oxopyrrolidin-1-yl)methyl)-1,2,3,4-tetrahydroisoquinoline-2-carbonyl)-1-methylcyclohexane-1-carboxylic acid], in experiment [1], the EC50 was 2.5 nM. This compound also displayed an IC50 in experiment [2] of 6.1 nM.
In the same order, the values of `COCc1c(COc2ccc(Cl)c3c2[C@@H](CN2CCCC2=O)N(C(=O)[C@@H]2CCCC[C@]2(C)C(=O)O)CC3)nnn1C` [Example 127, (1S,2R)-2-((S)-5-chloro-8-((5-(methoxymethyl)-1-methyl-1H-1,2,3-triazol-4-yl)methoxy)-1-((2-oxopyrrolidin-1-yl)methyl)-1,2,3,4-tetrahydroisoquinoline-2-carbonyl)-1-methylcyclohexane-1-carboxylic acid] are 2.6 nM and 7 nM.
